Measured values as given in patent publication US5332733A, “Heterocyclically substituted piperazinoakylbenzoxazine and piperazinoalkylbenzothiazine compounds, processes for preparing them, and medicaments containing them” (Kali-Chemie Pharma GmbH, priority 1990, dated 1994).

The molecules below were run against T1, cyclooxygenase (Mus musculus, UniProt P22437) (assay: In vitro cyclooxygenase inhibition, release of 6-keto-PGF1α from zymosan-stimulated peritoneal macrophages). Conditions: zymosan-stimulated mouse peritoneal macrophage cells, 10^-5 mole/l.
T1 construct: A cell suspension containing peritoneal cells from male mice 8-10 weeks old was obtained in a known manner; endogenous in cells; host or cells: mouse peritoneal macrophages (primary, adherent)
T1 sequence (P22437 27-602): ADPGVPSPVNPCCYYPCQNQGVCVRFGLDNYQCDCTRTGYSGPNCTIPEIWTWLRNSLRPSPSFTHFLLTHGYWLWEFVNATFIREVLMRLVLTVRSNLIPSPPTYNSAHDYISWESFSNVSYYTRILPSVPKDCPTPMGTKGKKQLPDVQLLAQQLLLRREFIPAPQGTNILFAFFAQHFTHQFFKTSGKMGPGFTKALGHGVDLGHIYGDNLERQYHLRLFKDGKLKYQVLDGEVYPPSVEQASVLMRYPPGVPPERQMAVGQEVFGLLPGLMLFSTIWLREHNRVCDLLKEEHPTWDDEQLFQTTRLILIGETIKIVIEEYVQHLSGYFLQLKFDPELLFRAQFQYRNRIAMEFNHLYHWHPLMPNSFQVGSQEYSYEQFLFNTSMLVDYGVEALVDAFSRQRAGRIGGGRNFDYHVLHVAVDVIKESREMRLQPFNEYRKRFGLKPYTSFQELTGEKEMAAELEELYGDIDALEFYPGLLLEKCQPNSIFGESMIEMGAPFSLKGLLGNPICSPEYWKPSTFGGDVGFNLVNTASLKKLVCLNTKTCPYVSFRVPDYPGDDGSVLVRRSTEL
Type: cell-based
Text: 5. In Vitro Determination of Cyclooxygenase Inhibition And 5-lipoxygenase Inhibition.
After a cell is activated, arachidonic acid contained in cell membranes is metabolized in two ways. Leucotrienes, inter alia leucotriene C4, are formed due to the action of the enzyme 5-lipoxygenase (=5-LO), and prostanoids are formed due to the action of the enzyme cyclooxygenase (=CO). In in vitro systems these metabolites are secreted from the cell.
To evaluate the cyclooxygenase-inhibiting and 5-lipoxygenase-inhibiting properties of the test substances, their inhibitory activity on the biosynthesis of the arachidonic acid derivatives leucotriene C4 (=LTC4) and 6-keto-prostaglandin F1α (=6-keto-PGF1α) was determined in vitro on mouse peritoneal macrophage cells. For this purpose the LTC4 and 6-keto-PGF1α contents of a mouse peritoneal macrophage cell culture medium were determined by zymosan stimulation as described by Scott et al. (J. Exp. Med. 152 (1980), 324-335) and by Fradin et al., (Prostaglandins, 33 (1987), 579-589).
A cell suspension containing peritoneal cells from male mice 8-10 weeks old was obtained in a known manner. A solution marketed under the designation RPMI 1640 (Manufactured by Gibco) was used as the cell culture medium, to which heparin (10 international units/ml) and antibiotics were added according to the procedure of Bonney et al. (Biochem. J. 176 (1978) 422-433). The cell suspension was adjusted to a cell concentration of 10^6 cells per ml and distributed uniformly on titer dishes containing 24 1-ml titer cells (wells). These were kept for two hours in a humidified incubator filled with air enriched with 7% CO2. Cells not adhering to the titer well walls were then removed by washing. The remaining macrophage cells adhering to the walls were incubated for about 12 hours in a suspension medium to which 0.1% of bovine serum albumin (BSA=Bovine Serum Albumin) was added. The suspension medium was then replaced by a Hanks salt solution (=Hanks Balanced Salt Solution=HBSS) with 10 mmoles of HEPES (=hydroxyethylpiperazinoethanesulfonic acid) to which a 0.1% strength solution of the test substances in aqueous, 1% strength dimethylformamide or only the solvent had been added. After 15 minutes the arachidonic acid metabolism was stimulated by adding […] of zymosan (=glycoprotein mixture isolated from cell walls of beer yeast, Saccharomyces cerevisiae, Manufactured by Sigma Chemical Co., Munich) per titre cell. After 2 hours samples of the respective supernatant liquid in each cell were examined for their 6-keto-PGF1α and LTC4 contents by an enzyme immunoassay (=EIA). This EIA is carried out following the method of Pradelles et al. (Analytical Chem. 57 (1985), 1170-1173). The determination of LTC4 and the determination of 6-keto-PGF1α were each carried out on suitable dilutions of the samples (1:50 to 1:250 for the LTC4 determination and 1:250 to 1:1,250 for the 6-keto-PGF1α determination) in comparison with a comparative scale. To determine the inhibiting effect of a 10^-5 molar concentration of the compounds, the amounts of reference eicosanoid were determined, and the inhibiting effect was calculated therefrom in % inhibition compared to the measurements of the zymosan controls.

| SMILES | % inhibition upon release of 6-keto-PGF1α |
| --- | --- |
| Cc1ccnc(N2CCN(CCCCC3Sc4ccccc4NC3=O)CC2)c1 (centres unmarked) [Example 1, 2-{4-[4-(4-methylpyridin-2-yl)-piperazin-1-yl]butyl}-2H-1,4-benzothiazine-3(4H)-one] | 27% |
| Cc1ccnc(N2CCN(CCCCC3Oc4ccccc4NC3=O)CC2)c1 (centres unmarked) [Example 7] | 17% |
| Cc1ccnc(N2CCN(CCCC3Oc4ccccc4NC3=O)CC2)c1 (centres unmarked) [Example 9] | 32% |
| Cc1ccnc(N2CCN(CCCC3Sc4ccccc4NC3=S)CC2)c1 (centres unmarked) [Example 11] | 0% |
| O=C1Nc2ccccc2SC1CCCN1CCN(c2ccc(Cl)cn2)CC1 (centres unmarked) [Example 15] | 46% |
